Source: paper PMC11879280, “Antimicrobial activity of peptoids against Metallo-β-lactamase-producing Klebsiella pneumoniae, Acinetobacter baumannii, Pseudomonas aeruginosa, and other WHO priority pathogens, including Candida auris” (Journal of Applied Microbiology, 2025)
≈ marks a conversion by molar mass, not a printed value. Where two headings read alike, the source gives them in different places. Square brackets hold non-standard residues; d marks the D form. Peptide text beside a SMILES is read from it. Nspe = C[C@H](NCC(=O)O)c1ccccc1; NDecylGly = CCCCCCCCCCNCC(=O)O; Nlys = NCCCCNCC(=O)O

Legend:
C. auris CBS12373 = assay: Broth microdilution MIC; format: cell-based, Candida auris
A. baumannii 006 = tested on: A. baumannii 006
Procedure, shortened: (§1)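 Broth microdilution with 5 × 10^5 CFU/ml inoculum in cation-adjusted Mueller–Hinton broth for antibiotics or MHB for peptidomimetics; 16–20 h at 37°C, 120 rpm. MBC/MFC by plating on Trypticase Soya Agar with phosphatidylcholine and Tween 80; geometric mean MIC calculated across pathogens.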

[1] = tested on: Enteroc. faecalis NCTC 13 379
Procedure, shortened: as §1

A. baumannii 007 = tested on: A. baumannii 007
Procedure, shortened: as §1

P. aeruginosa 216 = tested on: P. aeruginosa 216
Procedure, shortened: as §1

K. pneumoniae JIE2713 = tested on: K. pneumoniae JIE2713
Procedure, shortened: as §1

S. aureus 38 = tested on: S. aureus 38
Procedure, shortened: as §1

E. coli 005 = tested on: E. coli 005
Procedure, shortened: as §1

A. baumannii ATCC 19 606 = tested on: A. baumannii ATCC 19 606
Procedure, shortened: as §1

A. baumannii 005 = tested on: A. baumannii 005
Procedure, shortened: as §1

E. coli 0010 = tested on: E. coli 0010
Procedure, shortened: as §1

E. coli 0015 = tested on: E. coli 0015
Procedure, shortened: as §1

K. pneumoniae JIE2709 = tested on: K. pneumoniae JIE2709
Procedure, shortened: as §1

K. pneumoniae JIE4212 = tested on: K. pneumoniae JIE4212
Procedure, shortened: as §1

S. aureus 117 = tested on: S. aureus 117
Procedure, shortened: as §1

A. baumannii 008 = tested on: A. baumannii 008
Procedure, shortened: as §1

En. cloacae 003 = tested on: En. cloacae 003
Procedure, shortened: as §1

S. aureus 105 = tested on: S. aureus 105
Procedure, shortened: as §1

E. coli 0011 = tested on: E. coli 0011
Procedure, shortened: as §1

S. aureus 04 = tested on: S. aureus 04
Procedure, shortened: as §1

P. aeruginosa AR-1270 = tested on: P. aeruginosa AR-1270
Procedure, shortened: as §1

En. cloacae 005 = tested on: En. cloacae 005
Procedure, shortened: as §1

P. aeruginosa 33 = tested on: P. aeruginosa 33
Procedure, shortened: as §1

En. cloacae 001 = tested on: En. cloacae 001
Procedure, shortened: as §1

## CCCCCCCCCCNCC(=O)N(CCCCN)CC(=O)N(CC(=O)N(CC(=O)N(CCCCN)CC(=O)N(CC(=O)N(CC(N)=O)[C@@H](C)c1ccccc1)[C@@H](C)c1ccccc1)[C@@H](C)c1ccccc1)[C@@H](C)c1ccccc1 [TM8] (H-[NDecylGly][Nlys][Nspe][Nspe][Nlys][Nspe][Nspe]-NH2)
C. auris CBS12373; CBS 12 373, RPMI 1640 with MOPS, 5 × 10^3 CFU ml^−1, ≥90% reduction (≥50% for fluconazole)
  MIC against C. auris: 3.9 µg/mL
C. auris CBS12373; CBS12373
  MIC90: 15.6 µg/mL (≈ 14 µM)
  MIC against C. auris: 3.5 µM
A. baumannii 006; 006
  MIC of peptidomimetics: 3.5 µM
A. baumannii 006; A. baumannii 006, MHB (melimine/Mel4 with 0.2% BSA, 0.01% acetic acid), mean MIC
  MIC of peptidomimetics: 3.9 µg/mL
[1]; Enteroc. faecalis NCTC 13 379, MHB (melimine/Mel4 with 0.2% BSA, 0.01% acetic acid), mean MIC
  MIC of peptidomimetics: 7.8 µg/mL
[1]; NCTC 13
  MIC of peptidomimetics: 7.0 µM
A. baumannii 007; 007
  MIC of peptidomimetics: 3.5 µM
A. baumannii 007; A. baumannii 007, MHB (melimine/Mel4 with 0.2% BSA, 0.01% acetic acid), mean MIC
  MIC of peptidomimetics: 3.9 µg/mL
P. aeruginosa 216; 216
  MIC of peptidomimetics: 7.0 µM
P. aeruginosa 216; P. aeruginosa 216, MHB (melimine/Mel4 with 0.2% BSA, 0.01% acetic acid), mean MIC
  MIC of peptidomimetics: 7.8 µg/mL
K. pneumoniae JIE2713; JIE2713
  MIC of peptidomimetics: 14.0 µM
K. pneumoniae JIE2713; K. pneumoniae JIE2713, MHB (melimine/Mel4 with 0.2% BSA, 0.01% acetic acid), mean MIC
  MIC of peptidomimetics: 15.6 µg/mL
S. aureus 38; 38
  MIC of peptidomimetics: 3.5 µM
S. aureus 38; S. aureus 38, MHB (melimine/Mel4 with 0.2% BSA, 0.01% acetic acid), mean MIC
  MIC of peptidomimetics: 3.9 µg/mL
E. coli 005; 005
  MIC of peptidomimetics: 7.0 µM
E. coli 005; E. coli 005, MHB (melimine/Mel4 with 0.2% BSA, 0.01% acetic acid), mean MIC
  MIC of peptidomimetics: 7.8 µg/mL
A. baumannii ATCC 19 606; A. baumannii ATCC 19 606, MHB (melimine/Mel4 with 0.2% BSA, 0.01% acetic acid), mean MIC
  MIC of peptidomimetics: 3.9 µg/mL
A. baumannii ATCC 19 606; ATCC 19
  MIC of peptidomimetics: 3.5 µM
A. baumannii 005; 005
  MIC of peptidomimetics: 7.0 µM
A. baumannii 005; A. baumannii 005, MHB (melimine/Mel4 with 0.2% BSA, 0.01% acetic acid), mean MIC
  MIC of peptidomimetics: 7.8 µg/mL
E. coli 0010; 0010
  MIC of peptidomimetics: 14.0 µM
E. coli 0010; E. coli 0010, MHB (melimine/Mel4 with 0.2% BSA, 0.01% acetic acid), mean MIC
  MIC of peptidomimetics: 15.6 µg/mL
E. coli 0015; 0015
  MIC of peptidomimetics: 7.0 µM
E. coli 0015; E. coli 0015, MHB (melimine/Mel4 with 0.2% BSA, 0.01% acetic acid), mean MIC
  MIC of peptidomimetics: 7.8 µg/mL
K. pneumoniae JIE2709; JIE2709
  MIC of peptidomimetics: 14.0 µM
K. pneumoniae JIE2709; K. pneumoniae JIE2709, MHB (melimine/Mel4 with 0.2% BSA, 0.01% acetic acid), mean MIC
  MIC of peptidomimetics: 15.6 µg/mL
K. pneumoniae JIE4212; JIE4212
  MIC of peptidomimetics: 7.0 µM
K. pneumoniae JIE4212; K. pneumoniae JIE4212, MHB (melimine/Mel4 with 0.2% BSA, 0.01% acetic acid), mean MIC
  MIC of peptidomimetics: 7.8 µg/mL
S. aureus 117; 117
  MIC of peptidomimetics: 3.5 µM
S. aureus 117; S. aureus 117, MHB (melimine/Mel4 with 0.2% BSA, 0.01% acetic acid), mean MIC
  MIC of peptidomimetics: 3.9 µg/mL
A. baumannii 008; 008
  MIC of peptidomimetics: 7.0 µM
A. baumannii 008; A. baumannii 008, MHB (melimine/Mel4 with 0.2% BSA, 0.01% acetic acid), mean MIC
  MIC of peptidomimetics: 7.8 µg/mL
En. cloacae 003
  MIC of peptidomimetics: 7.0 µM
En. cloacae 003; En. cloacae 003, MHB (melimine/Mel4 with 0.2% BSA, 0.01% acetic acid), mean MIC
  MIC of peptidomimetics: 7.8 µg/mL
S. aureus 105; 105
  MIC of peptidomimetics: 3.5 µM
S. aureus 105; S. aureus 105, MHB (melimine/Mel4 with 0.2% BSA, 0.01% acetic acid), mean MIC
  MIC of peptidomimetics: 3.9 µg/mL
E. coli 0011; 0011
  MIC of peptidomimetics: 14.0 µM
E. coli 0011; E. coli 0011, MHB (melimine/Mel4 with 0.2% BSA, 0.01% acetic acid), mean MIC
  MIC of peptidomimetics: 15.6 µg/mL
S. aureus 04; 04
  MIC of peptidomimetics: 3.5 µM
S. aureus 04; S. aureus 004, MHB (melimine/Mel4 with 0.2% BSA, 0.01% acetic acid), mean MIC
  MIC of peptidomimetics: 3.9 µg/mL
P. aeruginosa AR-1270; AR-1270
  MIC of peptidomimetics: 14.0 µM
P. aeruginosa AR-1270; P. aeruginosa AR-1270, MHB (melimine/Mel4 with 0.2% BSA, 0.01% acetic acid), mean MIC
  MIC of peptidomimetics: 15.6 µg/mL
En. cloacae 005
  MIC of peptidomimetics: 14.0 µM
En. cloacae 005; En. cloacae 005, MHB (melimine/Mel4 with 0.2% BSA, 0.01% acetic acid), mean MIC
  MIC of peptidomimetics: 15.6 µg/mL
P. aeruginosa 33; 33
  MIC of peptidomimetics: 3.5 µM
P. aeruginosa 33; P. aeruginosa 33, MHB (melimine/Mel4 with 0.2% BSA, 0.01% acetic acid), mean MIC
  MIC of peptidomimetics: 3.9 µg/mL
En. cloacae 001
  MIC of peptidomimetics: 7.0 µM
En. cloacae 001; En. cloacae 001, MHB (melimine/Mel4 with 0.2% BSA, 0.01% acetic acid), mean MIC
  MIC of peptidomimetics: 7.8 µg/mL
